Patent US20260274832A1, “COMPOUNDS AND THEIR USE IN TREATING CANCER” (ASTRAZENECA AB, priority 2023, published 2026)

Experiments:
[1] = biological target: T1, AR (L702H) in LNCaP cells (Homo sapiens, UniProt P10275, L702H/T878A); assay: LNCaP Androgen Receptor L702H Imaging Assay (LNCaP cells engineered by CRISPR/Cas9); type: cell-based; conditions: LNCaP cells with AR L702H mutation, 24 h incubation; for DC50: concentration giving 50% of maximum degradation of AR (L702H) per curve fit; for Dmax: LNCaP, maximum degradation observed, normalized as % of positive control
T1 construct: engineered to introduce the mutation L702H into the AR gene using CRISPR/Cas9; endogenous in cells; host or cells: LNCaP cells edited by CRISPR/Cas9 at the AR gene
In short: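 CRISPR-engineered LNCaP cells carrying AR L702H were treated 24 h at 37 °C with a 12-point compound dose response (0.3% DMSO), then fixed and immunostained for AR with DRAQ5 nuclear counterstain. Nuclear AR was quantified by imaging, normalized to positive control; DC50 and Dmax came from Hill or bell-shaped fits.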

[2] = biological target: T2, AR (AR-full length) in LNCaP cells (Homo sapiens, UniProt P10275, T878A); assay: LNCaP Androgen Receptor Imaging Assay (immunofluorescence of endogenous nuclear AR); type: cell-based; conditions: 24 h incubation; for DC50: concentration giving 50% of maximum degradation of AR per curve fit, single experiment or average of two or more; for Dmax: LNCaP, maximum degradation observed, normalized as % of positive control (prior art AR PROTAC at 3 μM)
T2 construct: the prostate cancer cell line LNCaP (expressing AR-full length); endogenous in cells; host or cells: LNCaP
In short: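 LNCaP cells (12,000/well) received a 12-point compound dose series (0.3% DMSO) for 24 h at 37° C., then were PFA-fixed and stained for AR (AR441) and nuclei (DRAQ5). Nuclear AR was quantified by imaging, normalized to a 3 μM AR PROTAC control; DC50 and Dmax came from Hill/bell curve fits.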

T2 sequence (P10275 whole entry T878A): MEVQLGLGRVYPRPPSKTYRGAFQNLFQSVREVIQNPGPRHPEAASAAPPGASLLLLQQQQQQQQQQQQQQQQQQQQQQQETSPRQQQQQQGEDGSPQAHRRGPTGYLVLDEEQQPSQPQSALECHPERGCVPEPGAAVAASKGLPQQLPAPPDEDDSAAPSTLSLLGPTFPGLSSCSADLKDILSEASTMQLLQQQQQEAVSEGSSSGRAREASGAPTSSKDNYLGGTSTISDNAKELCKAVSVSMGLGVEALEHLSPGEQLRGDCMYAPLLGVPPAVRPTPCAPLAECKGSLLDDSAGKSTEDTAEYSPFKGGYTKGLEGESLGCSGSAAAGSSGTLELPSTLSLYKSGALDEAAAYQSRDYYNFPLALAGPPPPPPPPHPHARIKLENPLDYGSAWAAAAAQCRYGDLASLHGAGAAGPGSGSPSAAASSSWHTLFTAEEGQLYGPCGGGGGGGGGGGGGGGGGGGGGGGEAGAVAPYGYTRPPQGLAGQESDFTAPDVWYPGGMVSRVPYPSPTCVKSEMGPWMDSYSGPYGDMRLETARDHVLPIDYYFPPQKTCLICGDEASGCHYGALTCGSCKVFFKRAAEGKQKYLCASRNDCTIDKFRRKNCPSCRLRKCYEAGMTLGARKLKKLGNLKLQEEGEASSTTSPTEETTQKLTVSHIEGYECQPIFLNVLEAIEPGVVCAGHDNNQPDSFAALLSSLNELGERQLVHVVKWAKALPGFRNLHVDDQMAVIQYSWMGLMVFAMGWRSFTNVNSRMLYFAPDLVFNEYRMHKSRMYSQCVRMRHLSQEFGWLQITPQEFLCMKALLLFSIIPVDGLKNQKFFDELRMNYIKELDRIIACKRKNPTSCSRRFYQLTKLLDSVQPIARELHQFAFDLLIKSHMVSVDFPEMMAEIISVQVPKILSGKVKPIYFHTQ
T2 sequence (Q96SW2 whole entry partner): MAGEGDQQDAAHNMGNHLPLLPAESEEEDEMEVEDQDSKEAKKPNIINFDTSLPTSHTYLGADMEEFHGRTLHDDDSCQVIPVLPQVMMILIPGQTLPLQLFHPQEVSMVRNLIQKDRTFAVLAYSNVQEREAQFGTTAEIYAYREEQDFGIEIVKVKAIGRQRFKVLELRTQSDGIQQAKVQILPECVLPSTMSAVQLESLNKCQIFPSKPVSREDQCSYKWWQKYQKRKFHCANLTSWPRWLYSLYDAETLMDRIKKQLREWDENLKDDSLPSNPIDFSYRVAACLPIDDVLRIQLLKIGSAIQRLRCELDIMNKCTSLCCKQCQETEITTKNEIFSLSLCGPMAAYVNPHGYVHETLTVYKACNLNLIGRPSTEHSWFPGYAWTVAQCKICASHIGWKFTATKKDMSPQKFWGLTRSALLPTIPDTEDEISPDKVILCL
T1 sequence (P10275 whole entry L702H/T878A): as the sequence (P10275 whole entry T878A) above, with L702H counted along it
T1 sequence (Q96SW2 whole entry partner): as the sequence (Q96SW2 whole entry partner) above

SMILES	DC50 [1] [nM]	Dmax [1] [%]	DC50 [2] [nM]	Dmax [2] [%]
N#Cc1n[nH]c2c(N3CCC(NC(=O)c4ccc(N5CCC(CN6CCC(n7ccc8c(N9CCC(=O)NC9=O)cccc87)CC6)CC5)cc4F)CC3)ccc(Cl)c12 [Example 152, N-[1-(4-Chloro-3-cyano-1H-indazol-7-yl)piperidin-4-yl]-4-[4-({4-[4-(2,4-dioxo-1,3-diazinan-1-yl)-1H-indol-1-yl]piperidin-1-yl}methyl)piperidin-1-yl]-2-fluorobenzamide]	2	108	2	105
N#Cc1c[nH]c2c(N3CCC(NC(=O)c4ccc(N5CCC(CN6CCC(n7ccc8cc(N9CCC(=O)NC9=O)ccc87)CC6)CC5)cc4F)CC3)ccc(Cl)c12 [Example 153, N-[1-(4-Chloro-3-cyano-1H-indol-7-yl)piperidin-4-yl]-4-[4-({4-[5-(2,4-dioxo-1,3-diazinan-1-yl)-1H-indol-1-yl]piperidin-1-yl}methyl)piperidin-1-yl]-2-fluorobenzamide]	3	114	2	109
N#Cc1c[nH]c2c(N3CCC(NC(=O)c4ccc(N5CCC(CN6CCN(c7ccc(C(=O)NC8CCC(=O)NC8=O)c(F)c7)CC6)CC5)cc4F)CC3)ccc(Cl)c12 (centres unmarked) [Example 154]	9	79	4	81
N#Cc1c[nH]c2c(N3CCC(NC(=O)c4ccc(N5CCC(CN6Cc7cc8c(cc7C6)C(=O)N(C6CCC(=O)NC6=O)C8=O)CC5)cc4F)CC3)ccc(Cl)c12 (centres unmarked) [Example 155, N-[1-(4-Chloro-3-cyano-1H-indol-7-yl)piperidin-4-yl]-4-(4-{[6-(2,6-dioxopiperidin-3-yl)-5,7-dioxo-3,5,6,7-tetrahydropyrrolo[3,4-f]isoindol-2(1H)-yl]methyl}piperidin-1-yl)-2-fluorobenzamide]	17	82	4	80
Cn1c(C2CCN(CC3CCN(c4ccc(C(=O)NC5CCN(c6ccc(Cl)c7c(C#N)c[nH]c67)CC5)c(F)c4)CC3)CC2)cc2cc(F)c(N3CCC(=O)NC3=O)cc21 [Example 156, N-[1-(4-Chloro-3-cyano-1H-indol-7-yl)piperidin-4-yl]-4-[4-({4-[6-(2,4-dioxo-1,3-diazinan-1-yl)-5-fluoro-1-methyl-1H-indol-2-yl]piperidin-1-yl}methyl)piperidin-1-yl]-2-fluorobenzamide]	10	105	5	104
Cn1c(=O)n(C2CCC(=O)NC2=O)c2cccc(N3CCN(CC4CCN(c5ccc(C(=O)NC6CCN(c7ccc(Cl)c8c(C#N)c[nH]c78)CC6)c(F)c5)CC4)CC3)c21 (centres unmarked) [Example 157, N-[1-(4-Chloro-3-cyano-1H-indol-7-yl)piperidin-4-yl]-4-[4-({4-[1-(2,6-dioxopiperidin-3-yl)-3-methyl-2-oxo-2,3-dihydro-1H-benzimidazol-4-yl]piperazin-1-yl}methyl)piperidin-1-yl]-2-fluorobenzamide]	4	96	3	97
Cn1c(C2CCN(CC3CCN(c4ccc(C(=O)NC5CCN(c6ccc(Cl)c7c(C#N)c[nH]c67)CC5)c(F)c4)CC3)CC2)cc2ccc(N3CCC(=O)NC3=O)cc21 [Example 158, N-[1-(4-Chloro-3-cyano-1H-indol-7-yl)piperidin-4-yl]-4-[4-({4-[6-(2,4-dioxo-1,3-diazinan-1-yl)-1-methyl-1H-indol-2-yl]piperidin-1-yl}methyl)piperidin-1-yl]-2-fluorobenzamide]	7	107	1	104
N#Cc1c[nH]c2c(N3CCC(NC(=O)c4ccc(N5CCC(CN6CCN(c7ccc8c(c7)CN(C7CCC(=O)NC7=O)C8=O)CC6)CC5)cc4F)CC3)ccc(Cl)c12 (centres unmarked) [Example 159, N-[1-(4-Chloro-3-cyano-1H-indol-7-yl)piperidin-4-yl]-4-[4-({4-[2-(2,6-dioxopiperidin-3-yl)-1-oxo-2,3-dihydro-1H-isoindol-5-yl]piperazin-1-yl}methyl)piperidin-1-yl]-2-fluorobenzamide]	3	106	2	101
N#Cc1c[nH]c2c(N3CCC(NC(=O)c4ccc(N5CCC(CN6CCC(n7ccc8c(N9CCC(=O)NC9=O)cccc87)CC6)CC5)cc4F)CC3)ccc(Cl)c12 [Example 160, N-[1-(4-Chloro-3-cyano-1H-indol-7-yl)piperidin-4-yl]-4-[4-({4-[4-(2,4-dioxo-1,3-diazinan-1-yl)-1H-indol-1-yl]piperidin-1-yl}methyl)piperidin-1-yl]-2-fluorobenzamide]	4	105	1	104
N#Cc1c[nH]c2c(N3CCC(NC(=O)c4ccc(N5CCC(CN6CCN(c7cc8c(cc7F)C(=O)N(C7CCC(=O)NC7=O)C8=O)CC6)CC5)cc4F)CC3)ccc(Cl)c12 (centres unmarked) [Example 161, N-[1-(4-Chloro-3-cyano-1H-indol-7-yl)piperidin-4-yl]-4-[4-({4-[2-(2,6-dioxopiperidin-3-yl)-6-fluoro-1,3-dioxo-2,3-dihydro-1H-isoindol-5-yl]piperazin-1-yl}methyl)piperidin-1-yl]-2-fluorobenzamide]	20	98	7	95
N#Cc1cc(N2CCC(CN3CCC(n4ccc5c(N6CCC(=O)NC6=O)cccc54)CC3)CC2)ccc1C(=O)NC1CCN(c2ccc(Cl)c3c(C#N)c[nH]c23)CC1 [Example 162, N-[1-(4-Chloro-3-cyano-1H-indol-7-yl)piperidin-4-yl]-2-cyano-4-[4-({4-[4-(2,4-dioxo-1,3-diazinan-1-yl)-1H-indol-1-yl]piperidin-1-yl}methyl)piperidin-1-yl]benzamide]	1	110	1	106
Cc1cc(N2CCC(CN3CCC(n4ccc5c(N6CCC(=O)NC6=O)cccc54)CC3)CC2)cc(F)c1C(=O)NC1CCN(c2ccc(Cl)c3c(C#N)c[nH]c23)CC1 [Example 163, N-[1-(4-Chloro-3-cyano-1H-indol-7-yl)piperidin-4-yl]-4-[4-({4-[4-(2,4-dioxo-1,3-diazinan-1-yl)-1H-indol-1-yl]piperidin-1-yl}methyl)piperidin-1-yl]-2-fluoro-6-methylbenzamide]	2	113	1	107
Cc1cc(C(=O)NC2CCN(c3ccc(Cl)c4c(C#N)c[nH]c34)CC2)ccc1N1CCC(CN2CCC(n3ccc4c(N5CCC(=O)NC5=O)cccc43)CC2)CC1 [Example 164, N-[1-(4-Chloro-3-cyano-1H-indol-7-yl)piperidin-4-yl]-4-[4-({4-[4-(2,4-dioxo-1,3-diazinan-1-yl)-1H-indol-1-yl]piperidin-1-yl}methyl)piperidin-1-yl]-3-methylbenzamide]	2	114	2	108
N#Cc1cc(C(=O)NC2CCN(c3ccc(Cl)c4c(C#N)c[nH]c34)CC2)ccc1N1CCC(CN2CCC(n3ccc4c(N5CCC(=O)NC5=O)cccc43)CC2)CC1 [Example 165, N-[1-(4-Chloro-3-cyano-1H-indol-7-yl)piperidin-4-yl]-3-cyano-4-[4-({4-[4-(2,4-dioxo-1,3-diazinan-1-yl)-1H-indol-1-yl]piperidin-1-yl}methyl)piperidin-1-yl]benzamide]	2	115	2	106
N#Cc1c[nH]c2c(N3CCC(NC(=O)c4ccc(N5CCC(N6CCN(c7cc8c(cc7F)C(=O)N(C7CCC(=O)NC7=O)C8=O)CC6)CC5)cn4)CC3)ccc(Cl)c12 (centres unmarked) [Example 166, N-[1-(4-Chloro-3-cyano-1H-indol-7-yl)piperidin-4-yl]-5-(4-{4-[2-(2,6-dioxopiperidin-3-yl)-6-fluoro-1,3-dioxo-2,3-dihydro-1H-isoindol-5-yl]piperazin-1-yl}piperidin-1-yl)pyridine-2-carboxamide]	37	92	4	85
N#Cc1c[nH]c2c(N3CCC(NC(=O)c4ccc(N5CCC(CN6CCC(n7ccc8c(N9CCC(=O)NC9=O)cccc87)CC6)CC5)cn4)CC3)ccc(Cl)c12 [Example 167, N-[1-(4-Chloro-3-cyano-1H-indol-7-yl)piperidin-4-yl]-5-[4-({4-[4-(2,4-dioxo-1,3-diazinan-1-yl)-1H-indol-1-yl]piperidin-1-yl}methyl)piperidin-1-yl]pyridine-2-carboxamide]	2	100	1	101
N#Cc1c[nH]c2c(N3CCC(NC(=O)c4ccc(N5CCC(CN6CCN(c7ccc8c(c7)CN(C7CCC(=O)NC7=O)C8=O)CC6)CC5)cn4)CC3)ccc(Cl)c12 (centres unmarked) [Example 168, N-[1-(4-Chloro-3-cyano-1H-indol-7-yl)piperidin-4-yl]-5-[4-({4-[2-(2,6-dioxopiperidin-3-yl)-1-oxo-2,3-dihydro-1H-isoindol-5-yl]piperazin-1-yl}methyl)piperidin-1-yl]pyridine-2-carboxamide]	2	96	1	87
